Source: PubChem BioAssay (NCI)
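Cultured in 96-well plates, cells were exposed to test compound for 48 hours across five concentrations. TGI marks complete inhibition of growth.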

How the values were obtained:
Test in all cases: growth of human tumour cells (NCI), 48 h
[1] = tested on: BT-549 breast
[2] = tested on: T-47D breast
[3] = tested on: TK-10 renal
[4] = tested on: HCT-116 colon
[5] = tested on: NCI-H23 lung
[6] = tested on: OVCAR-8 ovarian
[7] = tested on: OVCAR-5 ovarian
[8] = tested on: SF-539 CNS
[9] = tested on: SK-MEL-28 melanoma
[10] = tested on: MALME-3M melanoma
[11] = tested on: LOX IMVI melanoma
[12] = tested on: NCI-H226 lung
[13] = tested on: PC-3 prostate
[14] = tested on: SF-295 CNS
[15] = tested on: SK-MEL-5 melanoma
[16] = tested on: MDA-MB-231 breast
[17] = tested on: RXF 393 renal
[18] = tested on: ACHN renal
[19] = tested on: HS 578T breast
[20] = tested on: SF-268 CNS
[21] = tested on: NCI/ADR-RES ovarian
[22] = tested on: EKVX NSCLC
[23] = tested on: OVCAR-3 ovarian
[24] = tested on: NCI-H460 lung
[25] = tested on: CCRF-CEM leukemia
[26] = tested on: NCI-H522 lung
[27] = tested on: MDA-N
[28] = tested on: UO-31 renal
[29] = tested on: KM12 colon
[30] = tested on: HT29 colon
[31] = tested on: IGROV1 ovarian
[32] = tested on: SNB-19 CNS
[33] = tested on: UACC-257 melanoma
[34] = tested on: OVCAR-4 ovarian
[35] = tested on: CAKI-1 renal
[36] = tested on: 786-0 renal
[37] = tested on: M14 melanoma
[38] = tested on: U251 CNS
[39] = tested on: MCF7 breast
[40] = tested on: SK-MEL-2 melanoma
[41] = tested on: COLO 205 colon
[42] = tested on: MOLT-4 leukemia
[43] = tested on: SN12C renal
[44] = tested on: DU-145 prostate
[45] = tested on: A498 renal
[46] = tested on: MDA-MB-435
[47] = tested on: UACC-62 melanoma
[48] = tested on: A549 NSCLC
[49] = tested on: SNB-75 CNS
[50] = tested on: K-562 leukemia
[51] = tested on: SK-OV-3 ovarian
[52] = tested on: HOP-92 NSCLC
[53] = tested on: HOP-62 NSCLC
[54] = tested on: HCT-15 colon
[55] = tested on: SW-620 colon
[56] = tested on: SR leukemia
[57] = tested on: HL-60(TB) leukemia
[58] = tested on: HCC-2998 colon
[59] = tested on: RPMI-8226 leukemia

COC(=O)[C@@H]1[C@@H](c2cccc(Cl)c2)[C@H](C(=O)OC)C2(C[C@@]1(C)O)NCCS2 (stereo not given in full) showed a TGI [1] of over 100 µM, a TGI [2] of over 100 µM and a TGI [3] of over 100 µM. It also gave a TGI [4] of over 100 µM, a TGI [5] of over 100 µM and a TGI [6] of over 100 µM. For the same compound, the TGI [7] was over 100 µM, the TGI [8] was over 100 µM and the TGI [9] was over 100 µM. The TGI [10] was over 100 µM, the TGI [11] was over 100 µM and the TGI [12] was over 100 µM. It also gave a TGI [13] of over 100 µM, a TGI [14] of over 100 µM and a TGI [15] of over 100 µM. The TGI [16] was over 100 µM, the TGI [17] was over 100 µM and the TGI [18] was over 100 µM. For the same compound, the TGI [19] was over 100 µM, the TGI [20] was over 100 µM and the TGI [21] was over 100 µM. For the same compound, the TGI [22] was over 100 µM, the TGI [23] was over 100 µM and the TGI [24] was over 100 µM. It also gave a TGI [25] of 14.6 µM, a TGI [26] of over 100 µM and a TGI [27] of over 100 µM. It also gave a TGI [28] of over 100 µM, a TGI [29] of over 100 µM and a TGI [30] of over 100 µM. The TGI [31] was over 100 µM, the TGI [32] was over 100 µM and the TGI [33] was over 100 µM. It also gave a TGI [34] of over 100 µM, a TGI [35] of over 100 µM and a TGI [36] of over 100 µM. It also gave a TGI [37] of over 100 µM, a TGI [38] of over 100 µM and a TGI [39] of over 100 µM. The TGI [40] was 94 µM, the TGI [41] was over 100 µM and the TGI [42] was 42.1 µM. It also gave a TGI [43] of over 100 µM, a TGI [44] of over 100 µM and a TGI [45] of over 100 µM. The TGI [46] was over 100 µM, the TGI [47] was over 100 µM and the TGI [48] was over 100 µM. For the same compound, the TGI [49] was over 100 µM, the TGI [50] was over 100 µM and the TGI [51] was over 100 µM. The TGI [52] was over 100 µM, the TGI [53] was over 100 µM and the TGI [54] was over 100 µM. The TGI [55] was over 100 µM.

O=C1CC2(c3ccccc3)ON=C(c3ccccc3)N2c2ccccc2N1 (stereo not given) showed a TGI [1] of over 100 µM, a TGI [2] of over 100 µM and a TGI [3] of over 100 µM. The TGI [4] was over 100 µM, the TGI [5] was over 100 µM and the TGI [6] was over 100 µM. For the same compound, the TGI [7] was over 100 µM, the TGI [56] was over 100 µM and the TGI [8] was over 100 µM. For the same compound, the TGI [9] was over 100 µM, the TGI [10] was over 100 µM and the TGI [11] was over 100 µM. The TGI [12] was over 100 µM, the TGI [13] was over 100 µM and the TGI [57] was over 100 µM. The TGI [14] was over 100 µM, the TGI [58] was over 100 µM and the TGI [16] was over 100 µM. For the same compound, the TGI [17] was over 100 µM, the TGI [18] was over 100 µM and the TGI [20] was over 100 µM. For the same compound, the TGI [21] was over 100 µM, the TGI [22] was over 100 µM and the TGI [23] was over 100 µM. The TGI [24] was over 100 µM, the TGI [25] was over 100 µM and the TGI [26] was over 100 µM. The TGI [27] was over 100 µM, the TGI [28] was over 100 µM and the TGI [29] was over 100 µM. For the same compound, the TGI [30] was over 100 µM, the TGI [31] was over 100 µM and the TGI [32] was over 100 µM. The TGI [33] was over 100 µM, the TGI [34] was over 100 µM and the TGI [36] was over 100 µM. For the same compound, the TGI [37] was over 100 µM, the TGI [38] was over 100 µM and the TGI [39] was over 100 µM. The TGI [40] was over 100 µM, the TGI [41] was over 100 µM and the TGI [42] was over 100 µM. The TGI [43] was over 100 µM, the TGI [44] was over 100 µM and the TGI [45] was over 100 µM. It also gave a TGI [46] of 53.2 µM, a TGI [47] of over 100 µM and a TGI [49] of over 100 µM. The TGI [50] was over 100 µM, the TGI [51] was 51.7 µM and the TGI [52] was 83.6 µM. The TGI [53] was over 100 µM, the TGI [54] was over 100 µM and the TGI [55] was over 100 µM. For the same compound, the TGI [59] was over 100 µM.
